Data taken from patent US9694016B2 (Novartis AG, priority 2013, dated 2017).
Like-named read-outs stand apart in the source and are kept apart here.

Biological target: b-Raf (V600E) (Homo sapiens (Human), UniProt P15056, V600E)
Settings: read-out: b-Raf IC-50, AlphaScreen
[1] = 60 min pre-incubation, 3 hours reaction
[2] = 60 min pre-incubation, reaction 3 hours at room temperature

Chain of b-Raf (V600E) (P15056 whole entry V600E): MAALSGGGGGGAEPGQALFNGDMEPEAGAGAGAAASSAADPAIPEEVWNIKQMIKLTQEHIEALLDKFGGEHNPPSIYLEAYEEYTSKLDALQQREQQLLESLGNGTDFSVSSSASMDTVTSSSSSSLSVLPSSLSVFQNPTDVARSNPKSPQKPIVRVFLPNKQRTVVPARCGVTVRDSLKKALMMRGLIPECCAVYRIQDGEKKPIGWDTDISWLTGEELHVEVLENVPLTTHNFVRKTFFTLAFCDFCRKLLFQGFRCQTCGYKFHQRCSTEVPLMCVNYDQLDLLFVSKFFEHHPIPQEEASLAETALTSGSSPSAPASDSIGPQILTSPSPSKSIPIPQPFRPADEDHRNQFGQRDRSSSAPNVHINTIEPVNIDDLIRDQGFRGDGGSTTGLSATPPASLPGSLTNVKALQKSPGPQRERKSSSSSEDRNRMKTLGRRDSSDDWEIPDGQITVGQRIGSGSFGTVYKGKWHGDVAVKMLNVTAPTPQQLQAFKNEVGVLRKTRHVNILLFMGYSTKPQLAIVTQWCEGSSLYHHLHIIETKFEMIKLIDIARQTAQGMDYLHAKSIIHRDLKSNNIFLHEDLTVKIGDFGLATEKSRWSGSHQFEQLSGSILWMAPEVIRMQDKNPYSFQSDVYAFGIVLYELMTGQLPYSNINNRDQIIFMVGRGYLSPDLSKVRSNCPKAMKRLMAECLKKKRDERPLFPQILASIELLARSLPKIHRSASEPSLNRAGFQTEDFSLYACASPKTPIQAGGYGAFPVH

In the case of CCn1cc(C(=O)Nc2cnc(C)c(-c3cc(N4CCOCC4)c(=O)n(C)c3)c2)c(C)n1 [Example 373, N-(1′,2-dimethyl-5′-morpholino-6′-oxo-1′,6′-dihydro-[3,3′-bipyridin]-5-yl)-1-ethyl-3-methyl-1H-pyrazole-4-carboxamide], the IC50 (Table 2, 3 hours reaction) is reported as 1100 nM.
Cc1ccc(NC(=O)c2ccnc(C(C)(C)C#N)c2)cc1-c1cc(N2CCOCC2)nc(NCCO)n1 [Example 734, 2-(2-cyanopropan-2-yl)-N-(3-(2-((2-hydroxyethyl)amino)-6-morpholinopyrimidin-4-yl)-4-methylphenyl)isonicotinamide] gave an IC50 [1] of 6.9 nM.
Work on CCOc1ncc(-c2cc(NC(=O)c3ccnc(C4COC4)c3)cnc2C)cc1N1CCOCC1 [Example 255, N-(6′-ethoxy-2-methyl-5′-morpholino-[3,3′-bipyridin]-5-yl)-2-(oxetan-3-yl)isonicotinamide] yielded an IC50 (Table 2, 3 hours reaction) of 5.6 nM.
With Cc1ccc(NC(=O)c2cc(C(C)(C)C#N)ccn2)cc1-c1cc(N2CCOCC2)n(C)c(=O)c1 [Example 900, 4-(2-cyanopropan-2-yl)-N-(4-methyl-3-(1-methyl-6-morpholino-2-oxo-1,2-dihydropyridin-4-yl)phenyl)picolinamide] the IC50 [2] was 3.17 nM.
Cc1ncc(NC(=O)c2ccnc(C(F)(F)F)c2)cc1-c1cc(C2COCCO2)nc(N2CCOCC2)c1 (centres unmarked) [Example 1165, N-(2′-(1,4-dioxan-2-yl)-2-methyl-6′-morpholino-[3,4′-bipyridin]-5-yl)-2-(trifluoromethyl)isonicotinamide] gave an IC50 [2] of 2.82 nM.
Work on Cc1ncc(NC(=O)c2ccnc(C(C)(C)O)c2)cc1-c1cnc(OC2CC3(COC3)C2)c(N2CCOCC2)c1 [Example 964, N-(6′-(2-oxaspiro[3.3]heptan-6-yloxy)-2-methyl-5′-morpholino-[3,3′-bipyridin]-5-yl)-2-(2-hydroxypropan-2-yl)isonicotinamide] yielded an IC50 [2] of 8.13 nM.
CCn1cc(C(=O)Nc2ccc(C)c(-c3cc(N4CCOCC4)c(=O)n(C)c3)c2)c(C)n1 [Example 365, 1-ethyl-3-methyl-N-(4-methyl-3-(1-methyl-5-morpholino-6-oxo-1,6-dihydropyridin-3-yl)phenyl)-1H-pyrazole-4-carboxamide] gave an IC50 (Table 2, 3 hours reaction) of 85.9 nM.
For COCCOc1nnc(-c2cc(NC(=O)c3ccnc(C(F)F)c3)ccc2C)cc1N1CCOCC1 [Example 598, 2-(difluoromethyl)-N-(3-(6-(2-methoxyethoxy)-5-morpholinopyridazin-3-yl)-4-methylphenyl)isonicotinamide], the IC50 [1] was 1.1 nM.
Cc1ncc(NC(=O)c2cccc(C(F)(F)F)c2)cc1-c1cnc(OC[C@@H](C)O)c(N2CCOCC2)c1 [Example 984, (R)—N-(6′-(2-hydroxypropoxy)-2-methyl-5′-morpholino-[3,3′-bipyridin]-5-yl)-3-(trifluoromethyl)benzamide] was tested, and the IC50 [2] was 2.28 nM.
Work on Cc1ncc(NC(=O)c2ccnc(C(C)(C)F)c2)cc1-c1cnc(F)c(N2CCOCC2)c1 [Example 298, N-(6′-fluoro-2-methyl-5′-morpholino-[3,3′-bipyridin]-5-yl)-2-(2-fluoropropan-2-yl)isonicotinamide] yielded an IC50 (Table 2, 3 hours reaction) of 3.9 nM.
Cc1ncc(NC(=O)c2ccnc(C3CC3)c2)cc1-c1cnc(OC2CC3(COC3)C2)c(N2CCOCC2)c1 [Example 966, N-(6′-(2-oxaspiro[3.3]heptan-6-yloxy)-2-methyl-5′-morpholino-[3,3′-bipyridin]-5-yl)-2-cyclopropylisonicotinamide] gave an IC50 [2] of 1.35 nM.
With Cc1cn(-c2cc(NC(=O)c3ccc(C)c(-c4cc(N5CCOCC5)c(=O)n(C)c4)c3)cc(C(F)(F)F)c2)cn1 [Example 428, 4-methyl-N-(3-(4-methyl-1H-imidazol-1-yl)-5-(trifluoromethyl)phenyl)-3-(1-methyl-5-morpholino-6-oxo-1,6-dihydropyridin-3-yl)benzamide] the IC50 (Table 2, 3 hours reaction) was 10.1 nM.
In the case of Cc1ccc(NC(=O)c2ccnc(C(C)(C)C#N)c2)cc1-c1nc(N2CCOCC2)c2[nH]ccc2n1 [Example 863, 2-(2-cyanopropan-2-yl)-N-(4-methyl-3-(4-morpholino-5H-pyrrolo[3,2-d]pyrimidin-2-yl)phenyl)isonicotinamide], the IC50 [2] is reported as 2.8 nM.
Cc1ccc(NC(=O)c2cc(C(F)(F)F)nn2C)cc1-c1cc(N2CCOCC2)c(=O)n(C)c1 [Example 369, 1-methyl-N-(4-methyl-3-(1-methyl-5-morpholino-6-oxo-1,6-dihydropyridin-3-yl)phenyl)-3-(trifluoromethyl)-1H-pyrazole-5-carboxamide] was tested, and the IC50 (Table 2, 3 hours reaction) was 53.1 nM.
In the case of Cc1ccc(NC(=O)c2cnnc(C(C)(C)C#N)c2)cc1-c1cc(OC2CCOCC2)nc(N2CCOCC2)c1 [Example 1153, 6-(2-cyanopropan-2-yl)-N-(4-methyl-3-(2-morpholino-6-((tetrahydro-2H-pyran-4-yl)oxy)pyridin-4-yl)phenyl)pyridazine-4-carboxamide], the IC50 [2] is reported as 2.15 nM.
For Cc1ccc(NC(=O)c2cnnc(C3CC3)c2)cc1-c1cnc(OC2CCOCC2)c(N2CCOCC2)c1 [Example 276, 6-cyclopropyl-N-(4-methyl-3-(5-morpholino-6-((tetrahydro-2H-pyran-4-yl)oxy)pyridin-3-yl)phenyl)pyridazine-4-carboxamide], the IC50 (Table 2, 3 hours reaction) was 0.4 nM.
Compound Cc1ccc(NC(=O)c2cccc(S(C)(=O)=O)c2)cc1-c1cc(N2CCOCC2)nc(N2CC(O)C2)c1 [Example 1096, N-(3-(2-(3-hydroxyazetidin-1-yl)-6-morpholinopyridin-4-yl)-4-methylphenyl)-3-(methylsulfonyl)benzamide] has an IC50 [2] of 2 nM.
For Cc1ncc(NC(=O)c2ccnc(C(C)(C)C#N)c2)cc1-c1cc(N2CCOCC2)c(=O)n(C)n1 [Example 645, 2-(2-cyanopropan-2-yl)-N-(6-methyl-5-(1-methyl-5-morpholino-6-oxo-1,6-dihydropyridazin-3-yl)pyridin-3-yl)isonicotinamide], the IC50 [1] was 53.4 nM.
Compound Cc1ncc(NC(=O)c2ccnc(C(C)(C)C)c2)cc1-c1cc(N2CCOCC2)c(=O)n(C)c1 [Example 399, 2-(tert-butyl)-N-(1′,2-dimethyl-5′-morpholino-6′-oxo-1′,6′-dihydro-[3,3′-bipyridin]-5-yl)isonicotinamide] has an IC50 (Table 2, 3 hours reaction) of 42.7 nM.
For Cc1ccc(NC(=O)c2ccnc(C(C)C)c2)cc1-c1cc(N2CCOCC2)nc(N(C)C)n1 [Example 757, N-(3-(2-(dimethylamino)-6-morpholinopyrimidin-4-yl)-4-methylphenyl)-2-isopropylisonicotinamide], the IC50 [1] was 1.4 nM.
Compound Cc1ccc(C(=O)Nc2cccc(C(C)(C)O)c2)cc1-c1cc(N2CCOCC2)n(C)c(=O)c1 [Example 516, N-(3-(2-hydroxypropan-2-yl)phenyl)-4-methyl-3-(1-methyl-6-morpholino-2-oxo-1,2-dihydropyridin-4-yl)benzamide] has an IC50 [1] of 17.7 nM.
Cc1ccc(NC(=O)c2cc(C(C)(C)C#N)ccn2)cc1-c1cc(N2CCOCC2)c(=O)n(C)n1 [Example 910, 4-(2-cyanopropan-2-yl)-N-(4-methyl-3-(1-methyl-5-morpholino-6-oxo-1,6-dihydropyridazin-3-yl)phenyl)picolinamide] showed an IC50 [2] of 5.09 nM.
CCNc1nc(-c2cc(C(=O)Nc3cccc(C(C)(C)C#N)c3)ccc2C)cc(N2CCOCC2)n1 [Example 732, N-(3-(2-cyanopropan-2-yl)phenyl)-3-(2-(ethylamino)-6-morpholinopyrimidin-4-yl)-4-methylbenzamide] showed an IC50 [1] of 2.2 nM.
Cc1ncc(NC(=O)c2ccnc(C(C)(F)F)c2)cc1-c1cc(N2CCOCC2)nc(N2CC(O)C2)c1 [Example 1080, 2-(1,1-difluoroethyl)-N-(2′-(3-hydroxyazetidin-1-yl)-2-methyl-6′-morpholino-[3,4′-bipyridin]-5-yl)isonicotinamide] showed an IC50 [2] of 12.9 nM.
Compound Cc1ncc(NC(=O)c2ccnc(C(C)(C)C#N)c2)cc1-c1cc(N2CCOCC2)c(S(C)(=O)=O)nn1 [Example 924, 2-(2-cyanopropan-2-yl)-N-(6-methyl-5-(6-(methylsulfonyl)-5-morpholinopyridazin-3-yl)pyridin-3-yl)isonicotinamide] has an IC50 [2] of 57.7 nM.
In the case of Cc1ncc(NC(=O)c2ccnc(S(C)(=O)=O)c2)cc1-c1cc(NCCO)nc(N2CCOCC2)c1 [Example 1043, N-(2′-((2-hydroxyethyl)amino)-2-methyl-6′-morpholino-[3,4′-bipyridin]-5-yl)-2-(methylsulfonyl)isonicotinamide], the IC50 [2] is reported as 22.8 nM.
CCC(F)(F)c1cc(C(=O)Nc2cnc(C)c(-c3cnc(OC(F)F)c(N4CCOCC4)c3)c2)ccn1 [Example 983, N-(6′-(difluoromethoxy)-2-methyl-5-morpholino-[3,3′-bipyridin]-5-yl)-2-(1,1-difluoropropyl)isonicotinamide] showed an IC50 [2] of 2.99 nM.
In the case of Cc1ccc(NC(=O)c2cccc(C(F)(F)F)c2)cc1-c1cc(N2CCOCC2)c(=O)n(CC2(C)COC2)c1 [Example 337, N-(4-methyl-3-(1-((3-methyloxetan-3-yl)methyl)-5-morpholino-6-oxo-1,6-dihydropyridin-3-yl)phenyl)-3-(trifluoromethyl)benzamide], the IC50 (Table 2, 3 hours reaction) is reported as 12.5 nM.
With Cc1ccc(NC(=O)c2ccnc(C3(C#N)CC3)c2)cc1-c1cc(N2CCOCC2)n2nccc2n1 [Example 796, 2-(1-cyanocyclopropyl)-N-(4-methyl-3-(7-morpholinopyrazolo[1,5-a]pyrimidin-5-yl)phenyl)isonicotinamide] the IC50 [1] was 0.7 nM.
Work on CCOc1nnc(-c2cc(NC(=O)c3ccnc(C(C)(C)C#N)c3)ccc2C)cc1N1CCOC[C@H]1C [Example 624, (R)-2-(2-cyanopropan-2-yl)-N-(3-(6-ethoxy-5-(3-methylmorpholino)pyridazin-3-yl)-4-methylphenyl)isonicotinamide] yielded an IC50 [1] of 4.7 nM.
For CCNc1nc(-c2cc(NC(=O)c3cc(C(F)(F)F)c(=O)n(CC)c3)cnc2C)cc(N2CCOCC2)n1 [Example 720, 1-ethyl-N-(5-(2-(ethylamino)-6-morpholinopyrimidin-4-yl)-6-methylpyridin-3-yl)-6-oxo-5-(trifluoromethyl)-1,6-dihydropyridine-3-carboxamide], the IC50 [1] was 23.2 nM.
Work on Cc1ncc(NC(=O)c2ccnc(C(C)(C)C#N)c2)cc1-c1cc(N2CCOCC2)nc(N2CC(O)C2)n1 [Example 767, 2-(2-cyanopropan-2-yl)-N-(5-(2-(3-hydroxyazetidin-1-yl)-6-morpholinopyrimidin-4-yl)-6-methylpyridin-3-yl)isonicotinamide] yielded an IC50 [1] of 47.4 nM.
